In paper PMC7587356, “High-Throughput Screening for Inhibitors of the SARS-CoV-2 Protease Using a FRET-Biosensor” (Molecules, 2020):
Structures can show the parent of a compound that is named as a salt. Where two headings read alike, the source gives them in different places.

Key:
SARS-CoV-2 3CLpro [1] = molecular target: T1, SARS-CoV-2 3CLpro (Severe acute respiratory syndrome coronavirus 2, UniProt P0DTD1); test: biochemical; assay type: biochemical
SARS-CoV-2 3CLpro [2] = molecular target: T1, SARS-CoV-2 3CLpro; test: biochemical; assay type: biochemical; parameters: Replicate_1 / Replicate_2 / mean / mean (LOPAC_screen_w_protease): unit not given here
[3] = with 0.01% Triton X-100; mean ± SD of triplicate; 4 h, 30 °C; read-out: A) EC50 with Triton X-100
[4] = without Triton X-100; mean ± SD of triplicate; 4 h, 30 °C; read-out: B) EC50 without Triton X-100
[5] = sheet LOPAC_screen_w_protease, primary screen with protease, mean of two replicates
[6] = sheet LOPAC_screen_w_protease, primary screen with protease, replicate 1
[7] = sheet LOPAC_screen_w_protease, primary screen with protease, replicate 2

Structure (SMILES) | Ratio (A/B) (SARS-CoV-2 3CLpro [1]) | EC50 (SARS-CoV-2 3CLpro [1]; [3]) | EC50 (SARS-CoV-2 3CLpro [1]; [4]) | further results
Oc1cc2c(c(Cl)c1O)CCNCC2c1ccccc1 (racemic) [(±)-6-Chloro-PB] | 1.4 | 1.44 ± 0.353 µM | 1.02 ± 0.289 µM | –
Oc1cc2c(cc1O)[C@H]1c3ccccc3CN[C@@H]1CC2 (racemic) [Dihydrexidine] | 1.1 | 0.705 ± 0.153 µM | 0.622 ± 0.072 µM | –
C=CCN1CCc2cc(O)c(O)cc2C(c2ccccc2)C1 (racemic) [N-allyl-(±)-SKF 38393] | – | 3.34 ± 0.805 µM | 1.65 ± 0.462 µM | –
Oc1ccc(Cn2cc[nH]c2=S)cc1 [1-Hbit] | – | 7.08 ± 5.15 µM | > 20 µM | –
N=c1c[n+](N2CCOCC2)[n-]o1 [3-Morpholinosydnonimine] | 1.1 | 5.66 ± 0.445 µM | 4.97 ± 2.38 µM | –
NC1CCc2cc(O)c(O)cc2C1 (stereo not drawn) [6,7-ADTN] | 1.1 | 2.38 ± 0.257 µM | 2.12 ± 0.727 µM | –
Oc1cc(O)c2c(c1)O[C@H](c1ccc(O)c(O)c1)[C@@H](O)C2 [(+)-Catechin] | – | > 20 µM | 11.3 ± 6.55 µM | –
CN1CC[C@@]2(C)c3cc(O)ccc3N(C)[C@@H]12 [(−)-Eseroline] | 1.3 | 0.994 ± 0.197 µM | 0.738 ± 0.201 µM | –
NC[C@@H]1O[C@H](C23CC4CC(CC(C4)C2)C3)Cc2c1ccc(O)c2O [A-77636] | 1.6 | – | – | EC50 (SARS-CoV-2 3CLpro [1]; read-out: A) EC50 with Triton X-100): 3.79 ± 0.63 µM; EC50 (SARS-CoV-2 3CLpro [1]; read-out: B) EC50 without Triton X-100): 2.34 ± 0.783 µM
N.S=C(S)N1CCCC1 [APDC] | 0.8 | 1.23 ± 0.064 µM | 1.53 ± 0.697 µM | –
O=C(O)/C=C/c1ccc(O)c(O)c1 [Caffeic Acid] | – | – | – | EC50 (SARS-CoV-2 3CLpro [1]; A) EC50 with Triton X-100): > 20 µM; EC50 (SARS-CoV-2 3CLpro [1]; B) EC50 without Triton X-100): 5.39 ± 1.23 µM
O=C(O)Cc1ccc(O)c(O)c1 [DOPAC] | 1.3 | 3.09 ± 0.226 µM | 2.46 ± 0.117 µM | –
CN(C)C(=O)/N=N/C(=O)N(C)C [Diamide] | – | 17.1 ± 20.8 µM | > 20 µM | –
CCN(CC)C(=S)SSC(=S)N(CC)CC [Disulfiram] | – | – | – | reduction in levels of inhibition upon addition of 0.01% Triton X-100 (SARS-CoV-2 3CLpro [1]; with vs without 0.01% Triton X-100): > 2 fold
Oc1ccc(C2CNCCc3c2cc(O)c(O)c3Cl)cc1 (stereo not drawn) [Fenoldopam] | – | > 20 µM | 7.19 ± 6.08 µM | –
N=C(N)NCCSSCCNC(=N)N [GED] | – | 5.83 ± 0.664 µM | 3.64 ± 2.43 µM | Ratio (A/B) (SARS-CoV-2 3CLpro [1]; EC50 with Triton X-100 / EC50 without Triton X-100, ratio greater than 2 suggests aggregation-based inhibitor): 1.6
NC/C=C\C(=O)O [cis-4-Aminocrotonic acid] | – | – | – | mean (SARS-CoV-2 3CLpro [2]; [5]): 2.546; Replicate_1 (SARS-CoV-2 3CLpro [2]; [6]): 3.312; Replicate_2 (SARS-CoV-2 3CLpro [2]; [7]): 1.781
OCCN1CCN(CC/C=C2/c3ccccc3Sc3ccc(C(F)(F)F)cc32)CC1 [cis-(Z)-Flupenthixol dihydrochloride] | – | – | – | inhibition at 5 µM (SARS-CoV-2 3CLpro [2]; 4 h, sheet LOPAC_screen_w_protease, primary screen with protease, mean of two replicates, read-out: mean): 2.17%; inhibition at 5 µM (SARS-CoV-2 3CLpro [2]; 4 h, sheet LOPAC_screen_w_protease, primary screen with protease, replicate 1, read-out: Replicate_1): 2.7%; inhibition at 5 µM (SARS-CoV-2 3CLpro [2]; 4 h, sheet LOPAC_screen_w_protease, primary screen with protease, replicate 2, read-out: Replicate_2): 1.63%
O=C(O)[C@@H]1C[C@H](C(=O)O)N1 [cis-Azetidine-2,4-dicarboxylic acid] | – | – | – | mean (LOPAC_screen_w_protease) (SARS-CoV-2 3CLpro [2]; LOPAC1280 primary screen with protease, 5 µM compound, mean of two replicates): 1.501; Replicate_1 (LOPAC_screen_w_protease) (SARS-CoV-2 3CLpro [2]; LOPAC1280 primary screen with protease, 5 µM compound, replicate 1): 1.545; Replicate_2 (LOPAC_screen_w_protease) (SARS-CoV-2 3CLpro [2]; LOPAC1280 primary screen with protease, 5 µM compound, replicate 2): 1.457
O=C1c2c(O)cc(O)cc2O[C@H](c2ccc(O)c(O)c2)[C@H]1O [dihydroquercetin, reference compound] | – | – | – | inhibition of 3CLpro in the primary screen (SARS-CoV-2 3CLpro [2]; 5 µM compound, 0.01% Triton X-100, 4 h endpoint, duplicate mean): 7.5%
C#CC(N)CCC(=O)O (stereo not drawn) [gamma-Acetylinic GABA] | – | – | – | mean (SARS-CoV-2 3CLpro [2]; [5]): 2.242; Replicate_1 (SARS-CoV-2 3CLpro [2]; [6]): 2.252; Replicate_2 (SARS-CoV-2 3CLpro [2]; [7]): 2.232
N[C@H](CCC(=O)NCS(=O)(=O)O)C(=O)O [gamma-D-Glutamylaminomethylsulfonic acid] | – | – | – | mean (SARS-CoV-2 3CLpro [2]; sheet LOPAC_screen_w_protease, LOPAC1280 at 5 µM, mean of two replicates): 1.223; Replicate_1 (SARS-CoV-2 3CLpro [2]; sheet LOPAC_screen_w_protease, LOPAC1280 at 5 µM, replicate 1): 4.708; Replicate_2 (SARS-CoV-2 3CLpro [2]; sheet LOPAC_screen_w_protease, LOPAC1280 at 5 µM, replicate 2): -2.2619
CC(C(=O)O)c1ccc(CC2CCCC2=O)cc1 (stereo not drawn) [loxoprofen] | – | – | – | inhibition at 5 µM (SARS-CoV-2 3CLpro [2]; 4 h, sheet LOPAC_screen_w_protease, LOPAC1280 at 5 µM, mean of two replicates, read-out: mean): 1.2%; inhibition at 5 µM (SARS-CoV-2 3CLpro [2]; 4 h, sheet LOPAC_screen_w_protease, LOPAC1280 at 5 µM, replicate 1, read-out: Replicate_1): 0.313%; inhibition at 5 µM (SARS-CoV-2 3CLpro [2]; 4 h, sheet LOPAC_screen_w_protease, LOPAC1280 at 5 µM, replicate 2, read-out: Replicate_2): 2.09%
O=c1cc(-c2ccc(O)c(O)c2)oc2cc(O)cc(O)c12 [luteolin, reference compound] | – | – | – | inhibition at 5 µM (SARS-CoV-2 3CLpro [2]; 4 h, read-out: Replicate_1): 0.919%; inhibition at 5 µM (SARS-CoV-2 3CLpro [2]; 4 h, read-out: Replicate_2): 1.72%; inhibition at 5 µM (SARS-CoV-2 3CLpro [2]; 4 h, read-out: mean): 1.32%; inhibition at 5 µM (SARS-CoV-2 3CLpro [2]; read-out: inhibition of 3CLpro in the primary screen): 1.3%
